According to US9314439B2, “Composition and method for muscle repair and regeneration” (Thomas Jefferson University, priority 2010, dated 2016):
“Also recorded” adds a separate entry of the source.

Columns and labels:
[1] = tested on: muscle defect in calf or anterior tibial muscles; assay: muscle defect mouse model, systemic or local administration of RAR agonist; type: in vivo; settings: for muscle repair: 100 μg/gavage/day at day 8, 10 and 12 from injury, 4 weeks after surgery
Text: Histological Procedures. To inspect muscle tissue structure, samples were fixed in 4% PFA and embedded in paraffin. Five μm serial sections were stained by either H&E (http://www.ihcworld.com/_protocols/special_stains/HE_Mayer.htm) or Masson's trichrome staining solution (http://www.ihcworld.com/_protocols/special_stains/masson_trichrome.htm). To detect adipose tissue, 4% PFA fixed samples were equilibrated in 20% sucrose in PBS, embedded in OCT compound and then sectioned by cryostat. Ten μm cryosections were dried, rehydrated and then stained with Oil-red O (http://www.ihcworld.com/_protocols/special_stains/oil_ red o.htm).
Immuno-Fluorescence. For the detection of various antigens in tissue sections, 5 μm paraffin sections were de-paraffinized, re-hydrated and then treated with 0.1% pepsin in 0.02 N HCl for 15 min at 37° C. Sections were washed three times in PBS-T and blocked in 10% normal goat serum with 0.3% BSA. Sections were incubated with 1st antibody, washed three times with PBS-T and then incubated with 2nd antibody. The list of antigens, antibodies and their dilutions are shown below.
Local and Systemic Administration of RAR Agonist. Systemic administration of RAR agonist was carried out by gavage as described previously (Shimono et al. J. Orthop. Res. 28:271-277, 2010). Local delivery of RAR agonist was done by injecting RAR agonist (dissolved in DMSO) using Hamilton syringe 87943 with 26G needle.
A muscle defect mouse model was used to investigate the muscle repair stimulation by administration of RAR gamma-agonists. A round-shaped defect was created with an electric cautery in calf or anterior tibial muscles in 8 week-old mice resulting in a 2.0 mm×2.0 mm×2.0 mm defect.
Round-shaped defects were created in calf-muscle tissue of 8 weeks old mice as above (one muscle defect/mouse). […] Tissue was collected for histological analysis on day 14.
[…] Tissues were collected for histological analysis at 2 and 4 weeks. Macro-photos of injured muscle tissue collected from control and RAR gamma-agonist (CD1530)-treated mice were taken at 4 weeks after injury.
Histological analysis of skeletal muscle tissue was performed 4 weeks after injury. Serial transverse sections of muscle tissue specimens collected 4 weeks after injury (same samples as discussed directly above) were stained with Masson's trichrome or processed for immuno-staining with antibodies to laminin (an extracellular protein abundant around muscle cells). […] To evaluate and quantify the changes of skeletal muscle tissue structure, images of trichrome-stained serial sections were taken and the relative amounts of muscle fiber, adipose and fibrous tissues were determined in multiple defined areas by ImagePro software. The analyzed areas were 9×9 grids each (about 3×3 mm) that included the original injured site (2×2 mm).
The effects of various retinoid agonists on skeletal muscle repair were examined Macro photographs were taken of muscle injury sites at the 4-week time point.

[2] = tested on: mouse bone marrow-derived mesenchymal stem cell (BMSC) cultures; assay: myogenic differentiation in mouse BMSC cultures; type: cell-based; settings: 7 days, 5% FBS DMEM
Description: MSCs were isolated as described previously (ref) with minor modification. Briefly, mouse bone marrow cells (1−2×10^7) harvested from long bones of 4-6 weeks old mice were seeded onto 100-mm culture dishes, incubated for 3 hours at 37° C. to allow attachment of adherent cells, and then rinsed twice with PBS to remove the nonadherent cells. The bone marrow-derived MSCs formed adherent colonies after 12-15 days of culture. Primary cultures were passed to disperse the colony-forming cells (passage 1). The cells were then subcultured again when they reached 70% confluent. Cells were maintained in α-MEM (Gibco BRL; Invitrogen Corp.) containing 20% fetal bovine serum (FBS; Equitech-Bio Inc.), 2 mM L-glutamine, a combination of 100 U/ml penicillin and 100 μg/ml streptomycin (Biofluids Inc.), and 55 μM 2-mercaptoethanol (Gibco BRL; Invitrogen Corp.) before the first passage. After the first passage, cells were maintained in 10% FBS, α-MEM unless indicated.
The differential effects of retinoid agonists on myogenic differentiation in mouse bone marrow-derived mesenchymal stem cell (BMSC) cultures were investigated. BMSCs were prepared from femurs and tibias of 6 week-old mice by standard methods and maintained in 5% FBS DMEM for 7 days in presence of 0.1% DMSO (vehicle: Control), 1 μM all-trans retinoic acid (RA) (commercially available from Sigma), 1 μM RAR alpha-agonist (obtained from NuRx Pharmaceuticals) or 30 nM RAR gamma-agonist (CD1530, commercially available).

[3] = tested on: RXR receptors; settings: cited from earlier work
[4] = tested on: RAR subtypes; settings: cited from earlier work
[5] = tested on: mesenchymal stem cell line; assay: MyoD and Myf5 immunostaining in mesenchymal stem cell (MSC) cultures; type: cell-based; settings: 100 nM, 10 days
Description: Cells from a mesenchymal stem cell line were cultured for 10 days in the presence or absence of RAR gamma-agonist (CD1530, 100 nM). Cultures were processed for immunostaining with MyoD or Myf5 antibodies or stained with nuclear dye DAPI. […] Results indicated an increase in MyoD and Myf5 levels by the RAR gamma-agonist in mesenchymal stem cell (MSC) cultures.

[6] = 900 μg by gavage on day 8, 10 and 12, 4 weeks after injury
[7] = 300 μg by gavage on day 8, 10 and 12, 4 weeks after injury
[8] = 100 ng on day 5, 7 and 9, 4 weeks after injury
[9] = 300 μg/day by gavage on day 8, 10 and 12, 4 weeks after injury

Question: Which muscle repair [1] does the source give for `CC1(C)CCC(C)(C)c2cc(Cn3cccn3)c(/C=C/c3ccc(C(=O)O)cc3)cc21` [Palovarotene, 4-[(E)-2-[5,6,7,8-Tetrahydro-5,5,8,8-tetramethyl-3-(1H-pyrazol-1-ylmethyl)-2-naphthalenyl]-ethenyl]-benzoic acid] here?
Answer: The muscle repair was “induced effective muscle repair”.

Question: Which results are given for `CC1(C)CCC(C)(C)c2c1cc(C(=O)Nc1cc(F)c(C(=O)O)c(F)c1)c(O)c2Cl` [NRX195183]?
Answer: formation of elongated multinucleated muscle cells ([2]; 1 μM): formed only in RAR gamma-agonist treated cultures; macroscopic appearance of injury site [1, 6]: still clearly visible as large whitish spots; tissue composition (histomorphometric quantification) [1, 6]: did not improve tissue composition

Question: For `CC1=C(/C=C/C(C)=C\C=C\C(C)=C\C(=O)O)C(C)(C)CCC1` [9-cis retinoic acid], which “binding to the RXR receptors” value [3] is on record?
Answer: Its value is “natural ligand”.

Question: For `CC1=C(/C=C/C(C)=C/C=C/C(C)=C/C(=O)O)C(C)(C)CCC1` [RA, all-trans retinoic acid], which “binding affinity to the three RAR subtypes” value [4] is on record?
Answer: Its value is “approximately equal affinity”.

Question: And the “formation of elongated multinucleated muscle cells” value ([2]; 1 μM)?
Answer: Its value is “formed only in RAR gamma-agonist treated cultures”.

Question: And the “binding to the RXR receptors” value [3]?
Answer: Its value is “does not bind”.

Question: What about the fibrous tissue area ([1]; 300 μg by gavage on day 8, 10 and 12, 4 weeks) of the same molecule?
Answer: The fibrous tissue area was “significant increase of fibrous tissue area”.

Question: What about the “macroscopic appearance of injury site” value [1, 7] of the same molecule?
Answer: Its value is “still clearly visible as large whitish spots”.

Question: And the muscle fiber area ([1]; 300 μg by gavage on day 8, 10 and 12, 4 weeks, control 33%, normal 90%)?
Answer: Its muscle fiber area is 54%.

Question: What does the source list for `O=C(O)c1ccc(-c2ccc3cc(O)c(C45CC6CC(CC(C6)C4)C5)cc3c2)cc1` [CD1530, 4-(6-Hydroxy-7-tricyclo[3.3.1.13,7]dec-1-yl-2-naphthalenyl)benzoic acid]?
Answer: Myf5 immunostaining [5]: clearly present; MyoD immunostaining [5]: clearly present; formation of elongated multinucleated muscle cells ([2]; 30 nM): Many elongated multinucleated muscle cells formed; HE histology of muscle defect ([1]; 100 ng on day 1, 3, 5, 7 and 9, 4 weeks after injury): decreased adipose and fibrous scar tissue formation but left a large indentation; HE histology of muscle defect ([1]; 100 ng on day 1, 3 and 5, 4 weeks after injury): decreased adipose and fibrous scar tissue formation but left a large indentation; indentation at muscle defect [1, 8]: much reduced indentation; quality and amount of newly formed muscle tissue [1, 8]: best; repair of muscle defects after local administration ([1]; 3 μg injected subcutaneously around the injury site on day 8 and 10, 4 weeks): almost completely repaired; macroscopic appearance of injury site [1, 7]: almost no visible sign of the original defect; also recorded: essentially invisible; tissue composition (relative amounts of muscle fiber, adipose and fibrous tissues, ImagePro) [1, 7]: largely restored the tissue composition; also recorded: almost normal; anti-laminin staining of repair tissue [1, 9]: stained strongly with anti-laminin antibodies; repair of muscle injury (Masson's trichrome sections) [1, 9]: almost completely repaired; amount of adipose and fibrous tissue (histo-morphometric analysis, ImagePro) ([1]; Day 5-9 treated group, Masson's trichrome, FIG. 6): least amount of adipose and fibrous tissue among all injured groups; histological analysis of muscle defect ([1]; anterior tibial muscle, 300 μg/day by gavage on day 8, 10 and 12, 2 and 4 weeks): filled with muscle fibers aligned along the major longitudinal axis of the anterior tibial muscle; myosin heavy chain (MHC) immunostaining of defect site ([1]; calf muscle, 300 μg/day by gavage on day 8, 10 and 12, day 14): many of these cells were MHC positive; histology of muscle defect site ([1]; calf muscle, 300 μg/day by gavage on day 8, 10 and 12 after injury, day 14): filled with many elongated muscle-like cells; HE histology of muscle defect ([1]; treated at days 1-3, 4 weeks after injury): decreased adipose and fibrous scar tissue formation but left a partial defect; HE histology of muscle defect ([1]; treated at days 5-7, 4 weeks after injury): completely filled with newly generated muscle fibers

Question: For `O=C(O)c1ccc2cc(-c3ccc(O)c(C45CC6CC(CC(C6)C4)C5)c3)ccc2c1` [CD437, 6-(4-Hydroxy-3-tricyclo[3.3.1.13,7]dec-1-ylphenyl)-2-naphthalenecarboxylic acid], which muscle repair [1] is on record?
Answer: Its muscle repair is “induced effective muscle repair”.
